{"source": "patent US20240182513A1", "about": "“SEPARATION OF METAL IONS FROM A SAMPLE USING GLYCOLIPIDS” (ARIZONA BOARD OF REGENTS ON BEHALF OF THE UNIVERSITY OF …, priority 2021, published 2024)", "key": {"[1]": {"assay": "Example 2.1 rhamnolipid precipitation, filtration, centrifugation: lanthanum", "settings": "for Treatment 2: Rhamnolipid and Filtration Cf / Treatment 3: Rhamnolipid and Centrifugation Cc / Treatment 1: Rhamnolipid Only Cr: lanthanum concentration after treatment; for Treatment 1: Rhamnolipid Only (Rr) efficiency of removal / Treatment 2: Rhamnolipid and Filtration (Rf) efficiency of removal / Treatment 3: Rhamnolipid and Centrifugation (Rc) efficiency of removal: lanthanum", "experimental": "(§1) Structural variants of synthetic glycolipids were used to show the effect of the number and length of the hydrophobic tail(s) on rhamnolipid as a chemical precipitant. […] Solutions (10 mM) were made using nanopure water (≥18 MΩ-cm) then adjusted to a pH of 6.9±0.05 with HNO3 and NaOH. These solutions were made in advance and stored in the cold room for up to one month. They were brought to room temperature before each experiment.\n(§2) Three metals were tested for binding with rhamnolipid. Lead as […] (Fisher Scientific, Waltham, MA, 99% purity), was chosen to represent a metal with high rhamnolipid-metal conditional stability constant; lanthanum as La(NO3)3 6(H2O) (Sigma-Aldrich, St. Louis, MO, 99.99% purity) was chosen as a representative REE; and magnesium as Mg(NO3)2 6(H2O) (Sigma-Aldrich, St. Louis, MO, 99% purity) was chosen to represent a metal with a low rhamnolipid-metal conditional stability constant (Hogan et al., 2017). Metal solutions (5 mM) were made using nanopure water (≥18 MΩ-cm) in 20 ml glass scintillation vials. All solutions were used within 15 min to ensure minimal adsorption to the glass vial.\n(§3) Three glycolipid-based treatments were evaluated to remove metal from solution: (1) the addition of glycolipid with no further treatment (gravitational precipitation), (2) the addition of a glycolipid followed by filtration or (3) the addition of a glycolipid followed by centrifugation. Each metal (Pb, La, and Mg) was evaluated separately with each of the glycolipid structures. For each experiment, a metal solution was mixed with a glycolipid solution in a 1.7 ml reaction tube at varying molar ratios of glycolipid to metal: 0:1 (glycolipid-free control), 2:1, 5:1, and 10:1. The reactions were mixed in the order of nanopure water (≥18 MΩ-cm), glycolipid solution (10 mM), then metal solution (5 mM). The metal and glycolipid solutions were continuously stirred as they were aliquoted into the reaction tubes. The experiment was performed in triplicate.\n(§4) The reaction tubes were mixed overnight (16 to 24 h) and then three samples were collected from each tube to measure the effect of each of the three treatments: a glycolipid only treatment sample, a filtration treatment sample, and a centrifugation treatment sample. Briefly, for the glycolipid only treatment samples all tubes were vortexed for approximately 5 sec immediately before removing 0.1 ml into a dilution tube of 2% trace metal grade nitric acid (12 to 14 ml) to minimize the settling of particles. For the filtration samples each reaction tube was vortexed for 5 sec and then a 0.6 ml aliquot was collected with a 1 ml syringe. A GHP acrodisc disk filter (hydrophilic polypropylene membrane, 0.45 μm pore size, 25 mm disc diameter) from Pall Life Sciences (Port Washington, New York) was then placed onto the end of the syringe and the solution was pushed through the filter. The void space in the disk filter holds approximately 0.5 ml, therefore around 0.1 ml of filtrate was collected into a dilution tube. For the centrifugation sample, the remaining solution was centrifuged at 10,000 RCF for 15 min. Approximately 0.1 ml of the supernatant was aliquoted into a dilution tube. Following collection, all samples were taken for metal analysis using ICP-MS."}, "[2]": {"assay": "Example 2.1 rhamnolipid precipitation, filtration, centrifugation: lead", "settings": "for Treatment 2: Rhamnolipid and Filtration Cf / Treatment 3: Rhamnolipid and Centrifugation Cc / Treatment 1: Rhamnolipid Only Cr: lead concentration after treatment; for Treatment 1: Rhamnolipid Only (Rr) efficiency of removal / Treatment 2: Rhamnolipid and Filtration (Rf) efficiency of removal / Treatment 3: Rhamnolipid and Centrifugation (Rc) efficiency of removal: lead", "experimental": "as §1, §2, §3, §4"}, "[3]": {"assay": "Example 2.1 rhamnolipid precipitation, filtration, centrifugation: magnesium", "settings": "for Treatment 2: Rhamnolipid and Filtration Cf / Treatment 3: Rhamnolipid and Centrifugation Cc / Treatment 1: Rhamnolipid Only Cr: magnesium concentration after treatment", "experimental": "as §1, §2, §3, §4"}}, "data": [{"compound": "CCCCCCCCCC(CC(=O)O)OC(=O)CC(CCCCCCCCC)OC1O[C@@H](C)[C@H](O)[C@@H](O)[C@H]1O", "note": "(stereo partly drawn) [Rha C12C12, rhamnosyl-β-hydroxydodecanoyl-62-hydroxydodecanoate]", "values": [{"measurement": "Treatment 2: Rhamnolipid and Filtration Cf", "setting": "[1]; molar ratio 2 to 1", "value": "0.119 ± 0.007", "unit": "mmol/L"}, {"measurement": "Treatment 3: Rhamnolipid and Centrifugation Cc", "setting": "[1]; molar ratio 2 to 1", "value": "0.164 ± 0.013", "unit": "mmol/L"}, {"measurement": "Treatment 1: Rhamnolipid Only Cr", "setting": "[1]; molar ratio 5 to 1", "value": "0.197 ± 0.006", "unit": "mmol/L"}, {"measurement": "Treatment 2: Rhamnolipid and Filtration Cf", "setting": "[1]; molar ratio 5 to 1", "value": "0.044 ± 0.009", "unit": "mmol/L"}, {"measurement": "Treatment 3: Rhamnolipid and Centrifugation Cc", "setting": "[1]; molar ratio 5 to 1", "value": "0.074 ± 0.003", "unit": "mmol/L"}, {"measurement": "Treatment 1: Rhamnolipid Only Cr", "setting": "[1]; molar ratio 10 to 1", "value": "0.263 ± 0.007", "unit": "mmol/L"}, {"measurement": "Treatment 2: Rhamnolipid and Filtration Cf", "setting": "[1]; molar ratio 10 to 1", "value": "0.035 ± 0.001", "unit": "mmol/L"}, {"measurement": "Treatment 3: Rhamnolipid and Centrifugation Cc", "setting": "[1]; molar ratio 10 to 1", "value": "0.057 ± 0.004", "unit": "mmol/L"}, {"measurement": "Treatment 1: Rhamnolipid Only Cr", "setting": "[1]; molar ratio rhamnolipid:lanthanum 2 to 1", "value": "0.184 ± 0.014", "unit": "mmol/L"}, {"measurement": "Treatment 1: Rhamnolipid Only (Rr) efficiency of removal", "setting": "[1]; molar ratio 2 to 1", "value": "(31.5%)"}, {"measurement": "Treatment 2: Rhamnolipid and Filtration (Rf) efficiency of removal", "setting": "[1]; molar ratio 2 to 1", "value": "(55.7%)"}, {"measurement": "Treatment 3: Rhamnolipid and Centrifugation (Rc) efficiency of removal", "setting": "[1]; molar ratio 2 to 1", "value": "(38.7%)"}, {"measurement": "Treatment 1: Rhamnolipid Only (Rr) efficiency of removal", "setting": "[1]; molar ratio 5 to 1", "value": "(26.4%)"}, {"measurement": "Treatment 2: Rhamnolipid and Filtration (Rf) efficiency of removal", "setting": "[1]; molar ratio 5 to 1", "value": "(83.7%)"}, {"measurement": "Treatment 3: Rhamnolipid and Centrifugation (Rc) efficiency of removal", "setting": "[1]; molar ratio 5 to 1", "value": "(72.4%)"}, {"measurement": "Treatment 1: Rhamnolipid Only (Rr) efficiency of removal", "setting": "[1]; molar ratio 10 to 1", "value": "(2.0%)"}, {"measurement": "Treatment 2: Rhamnolipid and Filtration (Rf) efficiency of removal", "setting": "[1]; molar ratio 10 to 1", "value": "(86.9%)"}, {"measurement": "Treatment 3: Rhamnolipid and Centrifugation (Rc) efficiency of removal", "setting": "[1]; molar ratio 10 to 1", "value": "(78.7%)"}, {"measurement": "Treatment 2: Rhamnolipid and Filtration Cf", "setting": "[2]; molar ratio 2 to 1", "value": "0.069 ± 0.018", "unit": "mmol/L"}, {"measurement": "Treatment 3: Rhamnolipid and Centrifugation Cc", "setting": "[2]; molar ratio 2 to 1", "value": "0.146 ± 0.008", "unit": "mmol/L"}, {"measurement": "Treatment 1: Rhamnolipid Only Cr", "setting": "[2]; molar ratio 5 to 1", "value": "0.204 ± 0.004", "unit": "mmol/L"}, {"measurement": "Treatment 2: Rhamnolipid and Filtration Cf", "setting": "[2]; molar ratio 5 to 1", "value": "0.049 ± 0.021", "unit": "mmol/L"}, {"measurement": "Treatment 3: Rhamnolipid and Centrifugation Cc", "setting": "[2]; molar ratio 5 to 1", "value": "0.047 ± 0.003", "unit": "mmol/L"}, {"measurement": "Treatment 1: Rhamnolipid Only Cr", "setting": "[2]; molar ratio 10 to 1", "value": "0.249 ± 0.10", "unit": "mmol/L"}, {"measurement": "Treatment 2: Rhamnolipid and Filtration Cf", "setting": "[2]; molar ratio 10 to 1", "value": "0.059 ± 0.028", "unit": "mmol/L"}, {"measurement": "Treatment 3: Rhamnolipid and Centrifugation Cc", "setting": "[2]; molar ratio 10 to 1", "value": "0.129 ± 0.002", "unit": "mmol/L"}, {"measurement": "Treatment 1: Rhamnolipid Only Cr", "setting": "[2]; molar ratio rhamnolipid:lead 2 to 1", "value": "0.211 ± 0.010", "unit": "mmol/L"}, {"measurement": "Treatment 1: Rhamnolipid Only (Rr) efficiency of removal", "setting": "[2]; molar ratio 2 to 1", "value": "(22.4%)"}, {"measurement": "Treatment 2: Rhamnolipid and Filtration (Rf) efficiency of removal", "setting": "[2]; molar ratio 2 to 1", "value": "(74.8%)"}, {"measurement": "Treatment 3: Rhamnolipid and Centrifugation (Rc) efficiency of removal", "setting": "[2]; molar ratio 2 to 1", "value": "(46.4%)"}, {"measurement": "Treatment 1: Rhamnolipid Only (Rr) efficiency of removal", "setting": "[2]; molar ratio 5 to 1", "value": "(25.0%)"}, {"measurement": "Treatment 2: Rhamnolipid and Filtration (Rf) efficiency of removal", "setting": "[2]; molar ratio 5 to 1", "value": "(81.8%)"}, {"measurement": "Treatment 3: Rhamnolipid and Centrifugation (Rc) efficiency of removal", "setting": "[2]; molar ratio 5 to 1", "value": "(82.8%)"}, {"measurement": "Treatment 1: Rhamnolipid Only (Rr) efficiency of removal", "setting": "[2]; molar ratio 10 to 1", "value": "(8.6%)"}, {"measurement": "Treatment 2: Rhamnolipid and Filtration (Rf) efficiency of removal", "setting": "[2]; molar ratio 10 to 1", "value": "(78.3%)"}, {"measurement": "Treatment 3: Rhamnolipid and Centrifugation (Rc) efficiency of removal", "setting": "[2]; molar ratio 10 to 1", "value": "(52.8%)"}, {"measurement": "Treatment 2: Rhamnolipid and Filtration Cf", "setting": "[3]; molar ratio 2 to 1", "value": "0.182 ± 0.055", "unit": "mmol/L"}, {"measurement": "Treatment 3: Rhamnolipid and Centrifugation Cc", "setting": "[3]; molar ratio 2 to 1", "value": "0.276 ± 0.005", "unit": "mmol/L"}, {"measurement": "Treatment 1: Rhamnolipid Only Cr", "setting": "[3]; molar ratio 5 to 1", "value": "0.285 ± 0.005", "unit": "mmol/L"}, {"measurement": "Treatment 2: Rhamnolipid and Filtration Cf", "setting": "[3]; molar ratio 5 to 1", "value": "0.135 ± 0.074", "unit": "mmol/L"}, {"measurement": "Treatment 3: Rhamnolipid and Centrifugation Cc", "setting": "[3]; molar ratio 5 to 1", "value": "0.273 ± 0.014", "unit": "mmol/L"}, {"measurement": "Treatment 1: Rhamnolipid Only Cr", "setting": "[3]; molar ratio 10 to 1", "value": "0.285 ± 0.012", "unit": "mmol/L"}, {"measurement": "Treatment 2: Rhamnolipid and Filtration Cf", "setting": "[3]; molar ratio 10 to 1", "value": "0.008 ± 0.004", "unit": "mmol/L"}, {"measurement": "Treatment 3: Rhamnolipid and Centrifugation Cc", "setting": "[3]; molar ratio 10 to 1", "value": "0.266 ± 0.012", "unit": "mmol/L"}, {"measurement": "Treatment 1: Rhamnolipid Only Cr", "setting": "[3]; molar ratio rhamnolipid:magnesium 2 to 1", "value": "0.281 ± 0.002", "unit": "mmol/L"}, {"measurement": "Treatment 2: Rhamnolipid and Filtration (Rf) efficiency of removal", "setting": "[3]; magnesium, molar ratio 2 to 1", "value": "(32.1%)"}, {"measurement": "Treatment 2: Rhamnolipid and Filtration (Rf) efficiency of removal", "setting": "[3]; magnesium, molar ratio 5 to 1", "value": "(49.4%)"}, {"measurement": "Treatment 2: Rhamnolipid and Filtration (Rf) efficiency of removal", "setting": "[3]; magnesium, molar ratio 10 to 1", "value": "(97.1%)"}, {"measurement": "Treatment 3: Rhamnolipid and Centrifugation (Rc) efficiency of removal", "setting": "[3]; magnesium, molar ratio 10 to 1", "value": "(0.4%)"}]}]}
